Reference: patent publication US6686394B1, “Aryl-chloro-ethyl ureas” (Sovar, Societe en Commandite, priority 1999, dated 2004)

Experiments:
[1] = tested on: T24; assay: Cytotoxicity assay G50, MTT or resazurin (Example 29); type: cell-based; conditions: Homo sapiens, T-24; cell line T24
Method: (§1) The MTT assay was as described above in Example 1. The Resazurin assay was performed as follows:
(§2) Aspirate the supernatant (cell suspension: centrifuge first)
(§3) Add 100 μL NaCl 0.9% (saline)
(§4) Add 50 μL RZ (resazurin 125 μg/ml/PBS: RPMI without FBS; 1:4)
(§5) Collect fluorescence data at different time.

[2] = tested on: L1210; assay: as above; type: cell-based; conditions: Mus musculus; cell line L1210
Method: as §1, §2, §3, §4, §5

[3] = tested on: K562; assay: as above; type: cell-based; conditions: Homo sapiens; cell line K562
Method: as §1, §2, §3, §4, §5

[4] = tested on: MCF-7; assay: as above; type: cell-based; conditions: Homo sapiens, MCF7; cell line MCF-7
Method: as §1, §2, §3, §4, §5

[5] = tested on: B16-F0; assay: as above; type: cell-based; conditions: Mus musculus, B16F0; cell line B16-F0
Method: (§6) Cell culture. Tumor cell lines (B16-F0, Caco-2, DU-145, HT-29, MDA-MB-231 and other cell lines described so far in the patent application) were obtained from the American Type Culture Collection (ATCC HTB-26; Bethesda, Md.). Cells were grown in RPMI 1640 medium supplemented with 10% fetal bovine serum (Hyclone, Road Logan, Utah) and were cultured in a humidified atmosphere at 37° C. in 5% CO2.
(§7) Drugs: All drugs were dissolved in DMSO and the final concentration of DMSO in the culture medium was maintained at 0.5% (v/v).
(§8) Cytotoxiciy assays. At day-1, tumor cells in suspension in 100 μl were plated in microtiter plates (96 wells). On day-0, tumor cells were treated by addition of escalating concentrations of the drug (100 μl solution). On that day, the number of living cells was determined in wells that were untreated. The number of living cells is determined using either MTT or resazurin assays. Growth inhibition activity of these compounds was expressed as the concentration of CAU inhibiting cell growth by 50% G50 in the following table
as §1, §2, §3, §4, §5

[6] = tested on: DU-145; assay: as above; type: cell-based; conditions: Homo sapiens; cell line DU-145
Method: as §6, §7, §8, §1, §2, §3, §4, §5

[7] = tested on: Caco-2; assay: as above; type: cell-based; conditions: Homo sapiens; cell line Caco-2
Method: as §6, §7, §8, §1, §2, §3, §4, §5

[8] = tested on: MDA-MB-231; assay: as above; type: cell-based; conditions: Homo sapiens; cell line MDA-MB-231
Method: as §6, §7, §8, §1, §2, §3, §4, §5

[9] = tested on: HT-29; assay: as above; type: cell-based; conditions: Homo sapiens; cell line HT-29
Method: as §6, §7, §8, §1, §2, §3, §4, §5

[10] = tested on: CHO; assay: as above; type: cell-based, Chinese Hamster; conditions: Cricetulus griseus; cell line CHO
Method: as §1, §2, §3, §4, §5

[11] = tested on: L1210 (mouse leukemia cells); assay: In-vitro cytotoxicity, MTT assay (Example 1); type: cell-based; conditions: L1210, 120 h, Table I, four to five days in the presence of drugs
Method: (§9) The conventional evaluation method proposed by the American National Cancer Institute was used. The method measures effectiveness of an anti-cancer drug based on IC50 which symbolizes the drug concentration in μM at which the drug achieves the inhibition of proliferation of a given line of cancer cells by a factor of one half when compared to the normal proliferation of the same line of cancer cells in the same growth media
(§10) CAU were tested on several cell lines including human non-hormone-dependant breast cancer cells (MDA-MB-231), and mouse leukemia (L1210). MDA-MB-231. These cell lines were obtained from the American Type Culture Collection (Bethesda, Md., USA). Cytotoxicity of CAU derivatives was tested and compared to the effect of chlorambucil and carmustine.
(§11) Tumor cells were grown in RPMI-1640 medium supplemented with 10% fetal calf serum, 2 mM glutamine and 64 U/mL of gentamycin. Cells were routinely passaged at 90% confluence.
(§12) Five thousand cells (100 μl) were seeded in 96 well's plate and incubated for one day at 37° C. under a humidified atmosphere, in presence of 5% CO2. […]
(§13) Cell's survival was evaluated by colorimetric assay using MTT, according to a modification of the procedure reported by Carmichael and coil. […] The plates were then shaken for 15 minutes and the absorbance read at 570 nm with a Behring Elisa Procesor II (Behring, Marburg, Germany). […]

[12] = tested on: MDA-MB-231 (human breast cancer cells); assay: In-vitro cytotoxicity, MTT assay (Example 1); type: cell-based; conditions: MDA-MB-231, 120 h, Table I, four to five days in the presence of drugs
Method: as §9, §10, §11, §12, §13

| SMILES | IC50 [1] [µM] | IC50 [2] [µM] | IC50 [3] [µM] | IC50 [4] [µM] | IC50 [5] [µM] | IC50 [6] [µM] | IC50 [7] [µM] | IC50 [8] [µM] | IC50 [9] [µM] | IC50 [10] [µM] | IC50 [11] [µM] | IC50 [12] [µM] |
| --- | --- | --- | --- | --- | --- | --- | --- | --- | --- | --- | --- | --- |
| CC[C@H](CCl)NC(=O)Nc1ccc(OC)c(OC)c1 [Example 20] | > 100 | > 100 | > 100 | > 100 | > 100 | > 100 | > 100 | > 100 | > 100 | > 100 | – | – |
| O=NN(CCCl)C(=O)NCCCl [Carmustine, carmustine] | – | – | – | – | – | – | – | – | – | – | 4.5 | 6.8 |
| CCCCCCOc1ccc(NC(=O)N[C@H](C)CCl)cc1 [Example 26] | 7.14 | 6.21 | 2.68 | 8.3 | 6.38 | 13.2 | 8.57 | 10.5 | 9.55 | 2.63 | – | – |
| CC[C@@H](CCl)NC(=O)Nc1ccc(OC)c(OC)c1 [Example 19] | > 100 | > 100 | > 100 | > 100 | > 100 | > 100 | > 100 | > 100 | > 100 | > 100 | – | – |
| COc1ccc(NC(=O)N[C@@H](C)CCl)cc1OC [Example 18] | > 100 | > 100 | > 100 | > 100 | > 100 | > 100 | > 100 | > 100 | > 100 | > 100 | – | – |
